Values joined by “and” are separate entries in the source; they are usually repeats but may differ in a detail not shown here. Equal values may be shown once. Active and inactive are the calls of the source.
Columns and labels:
Hexokinase = target: T1, Hexokinase (Trypanosoma brucei, UniProt Q38C41); test: Confirmation assay for inhibitors of Trypanosoma brucei hexokinase 1-Analogue-first series. [Related pubchem assays (depositor defined):AID1430, AID1632, AID2516, AID2560, AID2579, AID2600, AID449725, AID492951]; assay type: functional
T1 sequence (Q38C41 whole entry): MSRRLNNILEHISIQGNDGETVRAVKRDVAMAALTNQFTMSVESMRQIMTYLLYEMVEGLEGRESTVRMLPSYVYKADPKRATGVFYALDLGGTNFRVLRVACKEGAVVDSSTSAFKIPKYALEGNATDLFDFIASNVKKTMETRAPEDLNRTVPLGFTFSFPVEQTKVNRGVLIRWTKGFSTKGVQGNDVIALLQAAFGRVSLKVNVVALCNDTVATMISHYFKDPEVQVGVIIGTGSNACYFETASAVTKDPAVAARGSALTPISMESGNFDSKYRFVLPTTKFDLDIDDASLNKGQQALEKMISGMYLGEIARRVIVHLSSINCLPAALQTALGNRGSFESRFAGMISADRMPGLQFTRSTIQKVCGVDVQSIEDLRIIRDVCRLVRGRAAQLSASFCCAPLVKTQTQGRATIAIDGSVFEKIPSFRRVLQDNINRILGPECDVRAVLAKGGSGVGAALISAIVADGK

Escherichia coli = test: microbe, parasite or virus in culture
Vero [1] = test: cells; assay type: functional; conditions: Chlorocebus sabaeus
[2] = HEp-2 cell cytotoxicity, dose response, cytotoxicity control for RSV inhibitor project, HTS (AID 2410); assay type: functional; conditions: human respiratory syncytial virus
[3] = Luminescence Cell-Based Dose Retest to Confirm Inhibitors of Cancer Stem Cells. [Related pubchem assays (depositor defined):AID2717, AID2721]; assay type: functional; conditions: Homo sapiens
[4] = microbe, parasite or virus in culture; assay type: functional; conditions: Mycobacterium tuberculosis
Vero [5] = test: cells; assay type: functional, cell-based; conditions: Chlorocebus sabaeus
[6] = THP-1 cell cytotoxicity, dose response, cytotoxicity control for non-replicating M. tuberculosis project (AID 489025); assay type: functional
[7] = target: Glucose-6-phosphate 1-dehydrogenase (Homo sapiens, UniProt P11413); test: human G6PD enzyme inhibitors, dose response, selectivity assay for P. falciparum G6PD inhibitor project, biochemical, fluorescence (AID 504792); assay type: functional
[8] = target: T2, Polyadenylate-binding protein 1 (Homo sapiens, UniProt P11940); test: PABP1 MLLE–PAM2 interaction inhibitors, dose response, miRNA deadenylation inhibitor project, biochemical, fluorescence polarization, Cy5-PAM2 peptide, secondary (AID 602260); assay type: functional; conditions: read-out: IC50_Mean
[9] = target: T2, Polyadenylate-binding protein 1; test: PABP1 MLLE–PAM2 binding inhibitor potency, dose response, biochemical, fluorescence polarization, FITC-PAM2 peptide (AID 602259); assay type: functional; conditions: read-out: IC50_Mean
BJ [10] = test: cytotoxicity toward BJ-TERT fibroblasts, dose response, cell-based, RAS-independent, luminescence (AID 1933); assay type: functional; conditions: Homo sapiens
BJ [11] = test: cytotoxicity toward BJ-TERT-LT-ST fibroblasts, dose response, cell-based, RAS-independent, luminescence (AID 1935); assay type: functional; conditions: Homo sapiens;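 also: BJ fibroblasts immortalized with TERT plus LT and ST oncogenes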
[12] = cytotoxicity toward DRD oncogenic fibroblasts, dose response, cell-based, non-viral oncogenic, luminescence (AID 1934); assay type: functional; conditions: Homo sapiens
BJ [13] = test: cells; assay type: functional, cell-based; conditions: Homo sapiens
[14] = target: T3, Microphthalmia-associated transcription factor (Homo sapiens, UniProt O75030); test: TRPM1 promoter luciferase signal decrease, dose response, MITF inhibitor project, cell-based, SK-MEL-5, cherry-picked, set 3 (AID 493073); assay type: functional
T3 sequence (O75030 whole entry): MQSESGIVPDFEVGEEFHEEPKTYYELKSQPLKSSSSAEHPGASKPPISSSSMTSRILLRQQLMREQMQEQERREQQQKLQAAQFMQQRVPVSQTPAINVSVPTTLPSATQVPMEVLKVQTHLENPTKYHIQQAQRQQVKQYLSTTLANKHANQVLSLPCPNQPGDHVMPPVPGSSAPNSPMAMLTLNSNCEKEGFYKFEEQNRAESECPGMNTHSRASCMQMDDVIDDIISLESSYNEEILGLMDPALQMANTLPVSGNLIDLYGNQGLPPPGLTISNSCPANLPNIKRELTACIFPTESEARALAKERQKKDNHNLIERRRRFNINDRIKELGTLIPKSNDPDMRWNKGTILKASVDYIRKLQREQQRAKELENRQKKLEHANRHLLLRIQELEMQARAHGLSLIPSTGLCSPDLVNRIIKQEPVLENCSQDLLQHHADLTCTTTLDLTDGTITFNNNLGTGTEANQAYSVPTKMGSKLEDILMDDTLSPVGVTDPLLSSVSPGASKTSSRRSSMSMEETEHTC

[15] = target: Eukaryotic translation initiation factor 4E (Mus musculus, UniProt P63073); test: eIF4E–eIF4G protein interaction inhibitors, dose response, biochemical, TR-FRET (AID 855); assay type: functional;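 also: potency for disrupting eIF4E binding to eIF4GI seen as loss of FRET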
[16] = A Cell Based Secondary Assay To Explore Cytotoxicity of Compounds that Sensitize Mycobacterium Tuberculosis to Beta-Lactam Antibiotics.; assay type: functional

T2 sequence (P11940 whole entry): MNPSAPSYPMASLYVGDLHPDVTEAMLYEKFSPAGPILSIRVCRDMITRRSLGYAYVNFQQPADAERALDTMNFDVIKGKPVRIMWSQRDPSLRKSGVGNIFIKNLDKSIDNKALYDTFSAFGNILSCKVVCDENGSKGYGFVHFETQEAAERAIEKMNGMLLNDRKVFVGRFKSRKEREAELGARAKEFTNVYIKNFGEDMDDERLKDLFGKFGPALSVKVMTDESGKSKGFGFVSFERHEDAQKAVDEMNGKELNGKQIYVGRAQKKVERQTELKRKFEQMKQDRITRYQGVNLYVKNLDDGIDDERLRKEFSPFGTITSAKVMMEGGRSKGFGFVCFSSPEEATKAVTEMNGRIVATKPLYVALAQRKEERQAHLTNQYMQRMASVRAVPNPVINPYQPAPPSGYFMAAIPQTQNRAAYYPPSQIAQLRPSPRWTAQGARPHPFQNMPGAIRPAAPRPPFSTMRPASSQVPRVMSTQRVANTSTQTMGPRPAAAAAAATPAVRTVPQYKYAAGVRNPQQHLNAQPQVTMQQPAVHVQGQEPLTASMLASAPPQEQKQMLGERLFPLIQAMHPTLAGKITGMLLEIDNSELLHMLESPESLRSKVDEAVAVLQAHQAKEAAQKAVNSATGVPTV
Eukaryotic translation initiation factor 4E, sequence (P63073 whole entry): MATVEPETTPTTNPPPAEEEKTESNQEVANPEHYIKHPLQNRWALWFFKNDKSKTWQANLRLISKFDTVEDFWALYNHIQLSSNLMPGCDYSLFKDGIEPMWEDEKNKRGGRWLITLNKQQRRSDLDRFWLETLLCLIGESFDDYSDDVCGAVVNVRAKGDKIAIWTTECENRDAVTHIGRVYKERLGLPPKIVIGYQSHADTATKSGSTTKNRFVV
Glucose-6-phosphate 1-dehydrogenase, sequence (P11413 whole entry): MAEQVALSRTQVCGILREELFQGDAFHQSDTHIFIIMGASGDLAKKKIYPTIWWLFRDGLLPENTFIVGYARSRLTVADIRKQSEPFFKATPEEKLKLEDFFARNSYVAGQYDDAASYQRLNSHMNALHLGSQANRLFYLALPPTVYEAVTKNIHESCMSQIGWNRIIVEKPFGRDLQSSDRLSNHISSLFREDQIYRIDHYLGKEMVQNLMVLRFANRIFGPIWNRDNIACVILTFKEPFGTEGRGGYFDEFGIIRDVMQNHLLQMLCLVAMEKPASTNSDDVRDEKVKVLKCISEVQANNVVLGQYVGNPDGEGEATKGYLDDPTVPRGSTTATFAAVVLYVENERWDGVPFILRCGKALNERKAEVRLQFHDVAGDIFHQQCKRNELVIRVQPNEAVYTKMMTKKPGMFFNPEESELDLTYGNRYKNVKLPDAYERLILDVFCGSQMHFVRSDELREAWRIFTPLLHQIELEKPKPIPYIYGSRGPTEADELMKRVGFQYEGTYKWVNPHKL

Compound: COc1ccccc1NC(=O)Cn1sc2ccccc2c1=O
- IC50 (Hexokinase): 6.28 µM (active)

Compound: O=C(NCc1cccc(Cl)c1)c1cnn2c1NC(c1ccco1)CC2C(F)(F)F (centres undefined)
- AC50 (Escherichia coli): 24.2 µM (active)

Compound: COc1ccc(C(=O)/C=C/c2cc(OC)c(O)c(OC)c2)c(F)c1
- CC50 (Vero [1]): 18.7 µM (active)
- CC50 [2]: 14.3 µM (active)
- AC50 [3]: 7.21 µM (active)
- CC50 [4]: 25.7 µM (active)
- IC50 (Vero [5]): > 25 µM (active)

Compound: COCc1cc(C)n(CC(=O)NC(C)c2ccccc2)c(=O)c1C#N (centres undefined)
- AC50 (Escherichia coli): 27.1 µM (active)

Compound: Cc1cccc(NCc2ccc([N+](=O)[O-])s2)c1
- CC50 [6]: > 40 µM (active)

Compound: O=C(NNC(=S)NC(=O)c1sc2ccccc2c1Cl)c1ccc(Cl)cc1
- CC50 (Vero [1]): > 25 µM (active)
- IC50 (Vero [5]): 10 µM (active)

Compound: N#CC(C#N)=C1C=CC=CN1/C(=C\c1ccccc1Cl)C(=O)c1ccccc1
- IC50 [7]: > 80 µM (inactive)
- CC50 (Vero [1]): 24.5 µM (active)
- IC50 (Vero [5]): > 25 µM (active)

Compound: CCCCc1c(O)nc(SCC(=O)c2ccccc2)nc1O
- IC50 [8]: > 66 µM (inactive)
- IC50 [9]: > 66 µM (inactive)
- AC50 (Escherichia coli): 30.3 µM (active)

Compound: O=c1c2ccccc2[s+]([O-])n1-c1ccc(Cl)cc1 (centres undefined)
- IC50 (Hexokinase): > 25 µM (inactive)

Compound: Cc1cccc(NC(=O)[C@H](Cc2c[nH]c3ccccc23)NC(=O)[C@@H]2Cc3ccccc3CN2)c1
- EC50 (BJ [10]): 28.3 µM (active)
- CC50 (Vero [1]): 19.4 µM (active)
- EC50 (BJ [11]): > 150 µM (not active)
- EC50 [12]: 71.3 µM (active)
- EC50 (BJ [13]): 26.9 µM (active)
- IC50 (Vero [5]): 4.39 µM (active)

Compound: CC1(c2ccc(C(=O)Nc3cc(Cl)ccc3C(=O)O)cc2)CC1
- IC50 (Hexokinase): 8 µM (active) and 4.24 µM (active)

Compound: CCCN(CC(=O)Nc1ccccc1C)C(=O)CCl
- AC50 [14]: 4.04 µM (active)
- EC50 (BJ [10]): 4 µM (active)
- CC50 (Vero [1]): 9.42 µM (active)
- EC50 (BJ [11]): > 150 µM (inconclusive)
- EC50 [12]: 8.23 µM (active)
- EC50 (BJ [13]): 14.9 µM (inconclusive)

Compound: O=C(N/N=C/c1ccc2c(c1)OCO2)c1sc2cc(Cl)ccc2c1Cl
- IC50 [15]: > 64 µM (inactive)
- CC50 [16]: > 40 µM (active)

Compound: CCC1Oc2nc(SC)nnc2-c2ccccc2N1C(=O)c1ccccc1 (centres undefined)
- AC50 (Escherichia coli): 24.1 µM (active)

Compound: CN(C)S(=O)(=O)c1ccc(C(=O)/C=C/c2cccnc2)cc1
- EC50 (BJ [10]): 10.4 µM (active)
- EC50 (BJ [11]): > 150 µM (inconclusive)
- EC50 [12]: 10.4 µM (active)
- EC50 (BJ [13]): > 150 µM (not active)
- CC50 [16]: 17.5 µM (active)

Compound: COc1cc(/C=N/NC(=O)c2cc(-c3cccc(OC(C)C)c3)nc3ccccc23)ccc1O
- CC50 (Vero [1]): > 25 µM (active)
- CC50 [2]: 15.5 µM (active)
- IC50 (Vero [5]): > 25 µM (active)

Compound: CN(C)c1cccc(NC(=O)Cn2sc3ccccc3c2=O)c1
- IC50 (Hexokinase): 8.21 µM (active)

Compound: COC(CN(C)C(=O)C1CCCN(S(=O)(=O)c2ccc3c(c2)oc(=O)n3C)C1)OC (centres undefined)
- AC50 (Escherichia coli): 27.3 µM (active)

Source: ChEMBL document CHEMBL1201862, “PubChem BioAssay data set” (2004)
